Assay results: US5955485A, “Use of fused benzothiazoles as neuroprotectants” (Janssen Pharmaceutica, N.V., priority 1995, dated 1999)
“And” between values parts separate entries of the source, which are not always exact repeats. Identical values can stand only once. Like-named read-outs stand apart in the source and are kept apart here.

Legend:
[1] = system: Human fibroblasts [strain NS]; test: Protection of human fibroblasts against glutathione depletion (survival in cystine/methionine deficient EMEM, 48 hr); format: cell-based; details: Fibroblast, read-out: EC90 (concentration at which more than 90% of the fibroblasts survive 48 hours after treatment)
Experimental: Human fibroblasts [strain NS] were cultured in cystine/methionine deficient EMEM for 48 hr. In control cultures not receiving any treatment, all cells became necrotic. Cell death was scored by phase contrast microscopy. Table 1 summarizes the EC90 values observed with the compounds of formula (I), i.e. the concentration at which more than 90% of the fibroblasts survive 48 hours after treatment with a compound of formula (I).

[2] = system: primary neuronal (embryonic hippocampal) cultures; test: Survival-rescue of primary embryonic hippocampal cultures in vitE depleted medium (cytoplasmic LDH activity); format: cell-based, rat; details: for EC50: Rattus norvegicus, mean ± SD (number of dose responses), 50% of survival in vitE supplemented medium
Experimental: Primary embryonic hippocampal cultures were prepared essentially as described previously (Pauwels, P, Van Aschouw, H. P., Peeters, L., Moeremans, M., Leysen, J. E. 1992. Chronic treatment with sabeluzole protects cultured rat brain neurons from the neurotoxic effects of excitatory amino acids. Synapse, 12:271-280). Hippocampal formations of rats at embryonic day 17 were dissected and dissociated in 0.05% trypsin, 0.1 mg/ml DNase I in DMEM (Dulbecco Modified Eagle Medium). Heat-inactivated horse serum (HS) was added to a concentration of 4%, and the cells were centrifuged, washed with DMEM, and resuspended in DMEM/Ham's F12 (3:1) containing 10% HS. The cells were plated at a density of 4×10^5 cells/cm^2 in poly L-lysine (0.001%) pre-coated multiwell-24 plates. On day 1 in culture, the medium was changed to chemically defined CDM-R12 medium (DMEM-HEPES/Ham's F12 (3:1) containing 0.26% bovine serum albumin, 30 nM sodium selenite, 3 nM 3,3',5 triiodo-L-thyronine, 0.35 μM retinol, 0.3 μM retinol acetate, 2.3 μM DL-a-tocopherol, 2.1 μM DL-α-tocopherol acetate, […] linolenic acid, 3.6 μM linoleic acid, 0.125% human transferrin, 20 nM progesterone, 57.7 nM corticosterone, 49 U/l insulin, 0.4 μM biotin, 10 μM L-carnitine, 83 μM D(+)-galactose, 3.3 μM glutathione, 10 μM ethanolamine, 0.1 mM putrescine; Romijn, H. J., van Huizen, F., Wolters, P. S. 1984. Towards an improved serum-free, chemically defined medium for long-term culturing of cerebral cortex tissue. Neurosci. Behav. Rev., 8:301-334), either with (control) or without DL-α-tocopherol (VitE) and DL-α-tocopherol acetate, in the presence or absence of test compound. […] Addition of compounds could rescue the cultures. Culture survival was measured by means of cytoplasmic LDH activity. The EC50 for survival-rescue in vitE depleted cultures refers to the concentration of the compound required to restore culture survival to 50% of the survival seen for the culture grown in vitE supplemented medium. Seven concentrations of each compound were tested in triplicate, the number of independent experiments is indicated in the table, and the mean EC50 -value ± SD was calculated (Table 2).
Primary neuronal cultures depend on the presence of the antioxidant vitE in the culture medium for survival in vitro. When vitE depleted medium is used to grow the cultures, survival drops to ±20% of control. Compounds with antioxidative properties are able to complement the lack of vitE, and as such can when added to the culture medium, rescue vitE devoid cultures. Several derivatives of formula (I) were tested at 10^-7 M and 10^-6 M in the vitE depletion test on primary neuronal cultures, and were all able to rescue survival of vitE depleted cultures to a certain extent (Table 2).

C6 glioma cells [3] = test: Glutathione depletion-induced intracellular peroxides in C6 glioma cells (C-DCDHF fluorescence); format: cell-based; details: for Level of intracellular peroxides: 1 μM compound + glutamate 10 mM, n ≥ 3 (Table 5); for Level of intracellular peroxides / Intracellular peroxides: mean ± SEM; for Intracellular peroxides: glutamate 10 mM alone, n = 5 (Table 3)
Experimental: Fluorescence measurement of intracellular peroxides: Formation of intracellular peroxides was detected using 6-carboxy-2',7'-dichlorodihydrofluorescin diacetate, di(acetoxymethyl ester) (C-DCDHF, Molecular Probes). C-DCDHF was dissolved in DMSO at a concentration of 10 mM and stored at -70° C. under nitrogen. After exposure of the culture to 10 mM glutamate for 14~20 hr, the cells were loaded with 100 μM fluorophore for one hour at 37° C. Medium was aspirated off, PBS was added to the cells, and plates were read in a Cytofluor II micro plate fluorescence reader (PerSeptive Biosystems).Excitation and emission wavelength were selected with a 485/530 nm filter pair. Fluorescence intensity, expressed in relative fluorescence units (rfu)/μg cellular protein was used as index of intracellular peroxides.

C6 glioma cells [4] = test: Glutathione depletion-induced cell toxicity in C6 glioma cells (LDH release; protection); details: for IC50 / cytotoxicity at 10000 µM: C6 glioma; for IC50: read-out: Protection IC50; for cytotoxicity at 10000 µM: Rattus norvegicus
Experimental: Cultures were maintained at 37° C. in an air/5~10% CO2, water saturated atmosphere.
After 8-24 hr, the cultures were switched to culture medium in the absence or presence of the GSH depleting compound glutamate (10 mM).

C6 glioma cells [5] = test: GSH content in C6 glioma cell culture; format: cell-based; details: for GSH level: mean ± SEM, n = 3
From the text: The GSH content was deduced from a standard curve ranging from 0.2 to 2 nmol commercial GSH per test (ΔA/min plotted versus concentration).

Plasma levels = format: in vivo

Structure (SMILES)	EC90 [1] [nM]	EC50 [2] [nM]	Level of intracellular peroxides (C6 glioma cells [3]) [rfu/μg protein]	IC50 (C6 glioma cells [4]) [nM]	further results
c1cc2c(cc1NC1CCCC1)SC1=NCCN12 [Compound 4]	40000	177 ± 59	18 ± 2	29 ± 7	
c1cc2c(cc1NC1CCCCC1)SC1=NCCN12 [Compound 3]	40000	120 ± 71	22 ± 2	18 ± 3	
CCCNc1ccc2c(c1)SC1=NCCN12 [Compound 1]	40000				
CCC(C)Nc1ccc2c(c1)SC1=NCCN12 (stereo not shown) [Compound 11]	40000	224			
CCCCNc1ccc2c(c1)SC1=NCCN12 [Compound 10]	200000				
CC(C)(C)CNc1ccc2c(c1)SC1=NCCN12 [Compound 14]	8000				
c1cc2c(cc1NC1C3CC4CC(C3)CC1C4)SC1=NCCN12 (stereo not shown) [Compound 17]		47 ± 19	19 ± 1	12 ± 2	
CCNc1ccc2c(c1)SC1=NCCN12 [Compound 8]	200000				
CCC(CC)Nc1ccc2c(c1)SC1=NCCN12 [Compound 9]	40000				
CC(C)Nc1ccc2c(c1)SC1=NCCN12 [Compound 5]	40000				
Cc1cc(NC2CCCC2)c(C(C)C)c2c1N1CCN=C1S2 [Compound 18]		126	19 ± 1	25 ± 14	
CN(C)c1ccc2c(c1)SC1=NCCN12 [Compound 6]	40000				
CCCN(CCC)c1ccc2c(c1)SC1=NCCN12 [Compound 15]	40000				
CCCC(C)Nc1ccc2c(c1)SC1=NCCN12 (stereo not shown) [Compound 12]	40000	370 ± 169	24 ± 1	29 ± 14	
C[C@]12N[C@H](Cc3ccccc31)c1ccccc12 [MK801, reference compound]					prevention of LDH release (C6 glioma cells [4]; NMDA antagonist, data not shown, in words): not prevented
CCCCC(C)Nc1ccc2c(c1)SC1=NCCN12 (stereo not shown) [Compound 13]	8000	45	19 ± 1	10 ± 5	
CNc1ccc2c(c1)SC1=NCCN12 [Compound 2]	200000				
N[C@@H](CCC(=O)O)C(=O)O [Glutamate, glutamate, reference compound]					GSH level (C6 glioma cells [5]; glutamate 10 mM alone): 277 ± 24 pmol/well; GSH level (C6 glioma cells [5]; glutamate 10 mM alone, listed as glutamate): 277 pmol/well; reduction in intracellular GSH level versus control (C6 glioma cells [5]; glutamate 10 mM, 6~7 hr): ~3 fold; increase in toxic intracellular peroxides (C6 glioma cells [3]; glutamate 10 mM): ~3 fold; Intracellular peroxides (C6 glioma cells [3]): 205 ± 35 rfu/μg protein; Intracellular peroxides (C6 glioma cells [3]; listed as glutamate): 205 rfu/μg protein; cytotoxicity at 10000 µM (C6 glioma cells [4]; 48 h, read-out: LDH release, % of total): 78 ± 7%; cytotoxicity at 10000 µM (C6 glioma cells [4]; read-out: cell death): ~78%
CCCCCCNc1ccc2c(c1)SC1=NCCN12 [Compound 16, N-hexyl-2,3-dihydro-imidazo[2,1-b]benzothiazol-7-amine]	1600	41 ± 18	21 ± 1	5 ± 1	
c1cc2c(cc1NC1CCCCCC1)SC1=NCCN12 [Compound 7, N-cycloheptyl-2,3dihydro-imidazo[2,1-b]benzothiazol-7-amine]	320	25 ± 12		9	complete rescue of primary neuronal cultures grown in VitE depleted medium (concentration) ([2]; VitE depleted medium): 10^-7 M; potency rank in vitE depletion test ([2]; in words): the most potent compound; antioxidative activity relative to vitE ([2]; vitE depletion test, estimated): about 100 times more potent than vitE; GSH level relative to solvent control (C6 glioma cells [5]; 1 μM compound + glutamate 10 mM, in words): about one third of the solvent control level; GSH level (C6 glioma cells [5]; 1 μM compound + glutamate 10 mM): 242 ± 54 pmol/well; IC50 (C6 glioma cells [3]; individual values of 2 experiments, read-out: Inhibition of intracellular peroxides IC50): 28 nM and 71 nM; plasma levels upon reiterated or chronic administration (Plasma levels; reiterated or chronic administration, in words): progressively increase until a steady state is reached; period of effective plasma levels (Plasma levels; two doses (b.i.d.)): 24 h; protection from cell death (C6 glioma cells [4]; 1 μM, glutamate 10 mM, in words): fully protected
